Measurements from US8415272B2, “Quinoline derivatives and their use as fungicides” (Syngenta Crop Protection LLC, priority 2008, dated 2013).

Assays:
Pythium ultimum = assay: Growth inhibition in potato dextrose broth, Pythium ultimum (damping off), photometric; format: cell-based; settings: Globisporangium ultimum, 24° C., 48 hours, read-out: control of fungal infection, Pythium ultimum
Procedure, shortened: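 Growth inhibition was read photometrically at 48 hours after incubation at 24° C. Test compound was diluted from DMSO to 20 ppm in water and combined with potato dextrose broth seeded with Pythium ultimum mycelial fragments.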

[1] = tested on: Erysiphe graminis f.sp. tritici; assay: Leaf disk assay, Erysiphe graminis f.sp. tritici (wheat powdery mildew), preventive; format: in vivo; settings: Blumeria graminis, foliar, 96 h, wheat leaf segments, assessed four days after inoculation, read-out: control of fungal infection, Erysiphe graminis f.sp. tritici
Procedure, shortened: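 Preventive protocol: compound at 200 ppm in water (from DMSO) sprayed onto wheat leaf segments on agar, dried 12–24 h, then spore-inoculated. Fungicidal activity was assessed four days post-inoculation.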

Septoria nodorum = assay: Leaf disk assay, Septoria nodorum (wheat glume blotch), preventive; format: in vivo; settings: Parastagonospora nodorum, foliar, 96 h, wheat leaf segments, assessed four days after inoculation, read-out: control of fungal infection, Septoria nodorum
Plasmopara viticola = assay: Leaf disk assay, Plasmopara viticola (downy mildew of grapevine), preventive; format: in vivo; settings: foliar, 168 h, grapevine leaf disks, assessed seven days after inoculation, read-out: control of fungal infection, Plasmopara viticola
Pyricularia oryzae = assay: whole plant or invertebrate; format: in vivo; settings: foliar, 96 h, read-out: control of fungal infection, Pyricularia oryzae
Phytophthora infestans = assay: whole plant or invertebrate; format: in vivo; settings: in Solanum lycopersicum, foliar, 96 h, read-out: control of fungal infection, Phytophthora infestans
[2] = tested on: Puccinia recondita f.sp. tritici; assay: Leaf disk assay, Puccinia recondita f.sp. tritici (wheat brown rust), preventive; format: in vivo; settings: foliar, 216 h, wheat leaf segments, assessed nine days after inoculation, read-out: control of fungal infection, Puccinia recondita f.sp. tritici
Septoria tritici = assay: Growth inhibition in nutrient broth, Septoria tritici (leaf blotch), photometric; format: cell-based; settings: Zymoseptoria tritici, PDB broth, 24 C, 72 hrs, read-out: control of fungal infection, Septoria tritici
Fusarium culmorum = assay: Growth inhibition in nutrient broth, Fusarium culmorum (root rot), photometric; format: cell-based; settings: 48 h, read-out: control of fungal infection, Fusarium culmorum
Procedure, shortened: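 Fusarium culmorum conidia in potato dextrose broth were added to compounds in DMSO. Plates were incubated at 24 C for 48 hrs, with growth inhibition read photometrically. […]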

Pyrenophora teres = assay: Leaf disk assay, Pyrenophora teres (barley net blotch), preventive; format: in vivo; settings: foliar, 96 h, barley leaf segments, assessed four days after inoculation, read-out: control of fungal infection, Pyrenophora teres
Method: The compounds were tested in a leaf disk assay, with methods described below. The test compounds were dissolved in DMSO and diluted into water to 200 ppm. In the case of the test on Pythium ultimum, they were dissolved in DMSO and diluted into water to 20 ppm. Pyrenophora teres (barley net blotch): Barley leaf segments were placed on agar in a 24-well plate and sprayed with a solution of the test compound. After allowing to dry completely, for between 12 and 24 hours, the leaf disks were inoculated with a spore suspension of the fungus. After appropriate incubation the activity of a compound was assessed four days after inoculation as preventive fungicidal activity.

Botrytis cinerea = assay: Leaf disk assay, Botrytis cinerea (grey mould) on bean, preventive; format: in vivo; settings: foliar, 96 h, bean leaf disks, assessed four days after inoculation, read-out: control of fungal infection, Botrytis cinerea

Compound | melting point | inhibition of growth at 20 ppm (Pythium ultimum) | pest or weed control at 200 ppm [1] | pest or weed control at 200 ppm (Septoria nodorum) | pest or weed control at 200 ppm (Plasmopara viticola) | pest or weed control at 200 ppm (Pyricularia oryzae) | pest or weed control at 200 ppm (Phytophthora infestans) | pest or weed control at 200 ppm [2] | inhibition of growth at 60 ppm (Septoria tritici) | inhibition of growth at 60 ppm (Fusarium culmorum) | pest or weed control at 200 ppm (Pyrenophora teres) | pest or weed control at 200 ppm (Botrytis cinerea)
C#Cc1cnc2ccc(OC(SC)C(=O)N(O)C(C)(C)C)cc2c1 (stereo not drawn) [Compound 147, N-tert-Butyl-2-(3-ethynyl-quinolin-6-yloxy)-N-hydroxy-2-methylsulfanyl-acetamide] | 164 °C | – | – | – | – | – | – | – | – | – | – | –
C#Cc1cnc2ccc(OC(SC)C(=O)NC(C)(C#C)CO)cc2c1 (stereo not drawn) [Compound 160, 2-(3-ethynyl-quinolin-6-yloxy)-N-(1-hydroxymethyl-1-methylprop-2-ynyl)-2-methylsulfanyl-acetamide] | 149 to 150 °C | – | – | – | – | – | – | – | – | – | – | –
C#Cc1cnc2ccc(OC(SC)C(=O)NC(C)(C)CO)cc2c1 (stereo not drawn) [Compound 168, 2-(3-ethynyl-quinolin-6-yloxy)-N-(2-hydroxy-1,1-dimethyl-ethyl)-2-methylsulfanyl-acetamide] | 149 to 151 °C | – | – | – | – | – | – | – | – | – | – | –
C#Cc1cnc2ccc(OC(SC)C(=O)NC(C)(C#C)CO)cc2c1 (stereo not drawn) [Compound 173, 2-(3-Ethynyl-quinolin-6-yloxy)-N-(1-hydroxymethyl-1-methyl-prop-2-ynyl)-2-methylsulfanyl-acetamide] | 150 to 155 °C | – | – | – | – | – | – | – | – | – | – | –
C#Cc1cnc2cc(F)c(OC(SC)C(=O)NC(C)(C#N)CO)cc2c1 (stereo not drawn) [Compound 174, N-(1-Cyano-2-hydroxy-1-methyl-ethyl)-2-(3-ethynyl-7-fluoro-quinolin-6-yloxy)-2-methylsulfanyl-acetamide] | 80 to 83 °C | – | – | – | – | – | – | – | – | – | – | –
C#Cc1cnc2ccc(OC(SC)C(=O)NC3COC3)cc2c1 (stereo not drawn) [Compound 178, 2-(3-Ethynyl-quinolin-6-yloxy)-2-methylsulfanyl-N-oxetan-3-yl-acetamide] | 98 to 100 °C | – | – | – | – | – | – | – | – | – | – | –
C#Cc1cnc2ccc(OC(SC)C(=O)NC3(C)COC3)cc2c1 (stereo not drawn) [Compound 186, 2-(3-Ethynyl-quinolin-6-yloxy)-N-(3-methyl-oxetan-3-yl)-2-methylsulfanyl-acetamide] | 61 to 65 °C | – | – | – | – | – | – | – | – | – | – | –
C#Cc1cnc2c(Cl)cc(OC(SC)C(=O)NC3(C)CCC3)cc2c1 (stereo not drawn) [Compound 203, 2-(8-Chloro-3-ethynyl-quinolin-6-yloxy)-N-(1-methyl-cyclobutyl)-2-methylsulfanyl-acetamide] | 121 to 123 °C | – | – | – | – | – | – | – | – | – | – | –
C#Cc1cnc2c(F)cc(OC(SC)C(=O)NC(C)C)cc2c1 (stereo not drawn) [Compound 222, 2-(3-Ethynyl-8-fluoro-quinolin-6-yloxy)-N-isopropyl-2-methylsulfanyl-acetamide] | 135 to 136 °C | – | – | – | – | – | – | – | – | – | – | –
C#Cc1cnc2ccc(OC(SC)C(=O)NC3CSC3)cc2c1 (stereo not drawn) [Compound 223, 2-(3-Ethynyl-quinolin-6-yloxy)-2-methylsulfanyl-N-thietan-3-yl-acetamide] | 150 to 152 °C | – | – | – | – | – | – | – | – | – | – | –
C#Cc1cnc2ccc(OC(SC)C(=O)NC3(C)CSC3)cc2c1 (stereo not drawn) [Compound 224, 2-(3-Ethynyl-quinolin-6-yloxy)-2-methylsulfanyl-N-(3-methyl-thietan-3-yl)-acetamide] | 132 to 134 °C | – | – | – | – | – | – | – | – | – | – | –
C#Cc1cnc2cc(F)c(OC(SC)C(=O)NC(C)(C#N)COC)cc2c1 (stereo not drawn) [Example 6] | – | ≥ 60% | ≥ 60% | ≥ 60% | ≥ 60% | ≥ 60% | ≥ 60% | ≥ 60% | ≥ 60% | – | – | –
C#CCOCC#CC(C)(C)NC(=O)C(Oc1cc(C)c2ncc(C#C)cc2c1)SC (stereo not drawn) [Example 10] | – | ≥ 60% | ≥ 60% | ≥ 60% | ≥ 60% | ≥ 60% | ≥ 60% | – | ≥ 60% | ≥ 60% | – | –
C#Cc1cnc2c(C)cc(OC(SC)C(=O)NC(C)(C#N)COC)cc2c1 (stereo not drawn) [Example 12] | – | ≥ 60% | ≥ 60% | ≥ 60% | ≥ 60% | ≥ 60% | ≥ 60% | ≥ 60% | ≥ 60% | – | – | –
C#CCOCC(C)(COCC#C)NC(=O)C(Oc1ccc2ncc(C#C)cc2c1)SC (stereo not drawn) [Example 12c, 2-(3-ethynyl-quinolin-6-yloxy)-N-(1-methyl-2-prop-2-ynyloxy-1-prop-2-ynyloxymethyl-ethyl)-2-methylsulfanyl-acetamide] | 95 to 100 °C | – | – | – | – | – | – | – | – | – | – | –
C#Cc1cnc2ccc(OC(SC)C(=O)NC(C)(C#N)CO)cc2c1 (stereo not drawn) [Example 12d, N-(1-cyano-2-hydroxy-1-methyl-ethyl)-2-(3-ethynyl-quinolin-6-yloxy)-2-methylsulfanyl-acetamide] | 78 to 80 °C | – | – | – | – | – | – | – | – | – | – | –
C#Cc1cnc2c(C)cc(OC(SC)C(=O)NC(C)(C)CO)cc2c1 (stereo not drawn) [Example 15] | – | ≥ 60% | – | ≥ 60% | ≥ 60% | ≥ 60% | ≥ 60% | – | ≥ 60% | – | – | –
C#Cc1cnc2c(Cl)cc(OC(SC)C(=O)NC(C)(C)C#CC)cc2c1 (stereo not drawn) [Example 20] | – | ≥ 60% | ≥ 60% | ≥ 60% | ≥ 60% | – | ≥ 60% | ≥ 60% | ≥ 60% | ≥ 60% | ≥ 60% | ≥ 60%
C#CCOCC(C)(C)NC(=O)C(Oc1ccc2ncc(C#C)cc2c1)SC (stereo not drawn) [Example 30] | – | ≥ 60% | ≥ 60% | ≥ 60% | ≥ 60% | – | ≥ 60% | ≥ 60% | ≥ 60% | ≥ 60% | ≥ 60% | ≥ 60%
C#CCC(C)(C)NC(=O)C(Oc1ccc2ncc(C#C)cc2c1)SC (stereo not drawn) [Example 31] | – | ≥ 60% | ≥ 60% | ≥ 60% | ≥ 60% | – | ≥ 60% | ≥ 60% | ≥ 60% | ≥ 60% | ≥ 60% | ≥ 60%
C#Cc1cnc2cc(F)c(OC(SC)C(=O)NC(C)(C)C#CCOC)cc2c1 (stereo not drawn) [Example 66] | – | ≥ 60% | ≥ 60% | ≥ 60% | ≥ 60% | – | ≥ 60% | ≥ 60% | ≥ 60% | ≥ 60% | ≥ 60% | ≥ 60%
C#Cc1cnc2c(Br)cc(OC(SC)C(=O)NC(C)(C)C#CCOC)cc2c1 (stereo not drawn) [Example 70] | – | ≥ 60% | ≥ 60% | ≥ 60% | ≥ 60% | – | ≥ 60% | ≥ 60% | ≥ 60% | – | ≥ 60% | ≥ 60%
C#CCOCCC(C)(C#N)NC(=O)C(Oc1ccc2ncc(C#C)cc2c1)SC (stereo not drawn) [Example 72] | – | ≥ 60% | ≥ 60% | ≥ 60% | ≥ 60% | – | ≥ 60% | ≥ 60% | ≥ 60% | – | ≥ 60% | ≥ 60%
C#CCC(C)(C)NC(=O)C(Oc1cc(Cl)c2ncc(C#C)cc2c1)SC (stereo not drawn) [Example 75] | – | ≥ 60% | ≥ 60% | ≥ 60% | ≥ 60% | – | ≥ 60% | ≥ 60% | ≥ 60% | ≥ 60% | ≥ 60% | ≥ 60%
